Assay results from patent US4006241A, “Certain halothien-2-yl 5-nitrothiazol-2-yl ketones and fungicidal composition” (Schering Aktiengesellschaft, priority 1973, dated 1977).
Converted amounts (≈) assume the structure as drawn.

How the values were obtained:
Assay type in all cases: cell-based
Candida albicans = test: minimum inhibitory concentration (MIC) against fungi, Cand. alb.
Description: (§1) As examples of the effectiveness of the compounds of general Formula III against fungi, Table I indicates the minimum inhibitory concentrations (MIC) of several compounds. The comparison compounds are the known 2-Dimethylamino-6-(β-diethylaminoethoxy)-benzothiazole dihydrochloride and two 5-nitrothiazole derivatives substituted in the 2-position, which are known in the literature (J. Med. Chem. 12 [1969] 303).

[1] = system: Trichophyton mentagrophytes; test: minimum inhibitory concentration (MIC) against fungi, Trich. ment.
Description: as §1

Trichophyton rubrum = test: minimum inhibitory concentration (MIC) against fungi, Trich. rubr.
Description: as §1

Structure (SMILES) | MIC (Candida albicans) | MIC [1] | MIC (Trichophyton rubrum)
CC(=O)NN=Cc1ncc([N+](=O)[O-])s1 | 25 µg/mL (≈ 117 µM) | 12.5 µg/mL (≈ 58.4 µM) | 12.5 µg/mL (≈ 58.4 µM)
Cc1cc(C(=O)c2ncc([N+](=O)[O-])s2)c(C)c(C)c1O | 1.6 µg/mL (≈ 5.47 µM) | 6.3 µg/mL (≈ 21.6 µM) | 3.1 µg/mL (≈ 10.6 µM)
CCN(CC)CCOc1ccc2nc(N(C)C)sc2c1.Cl.Cl [2-Dimethylamino-6-(β-diethylaminoethoxy)-benzothiazole dihydrochloride] | 300 µg/mL | 50 µg/mL | 50 µg/mL
O=C(c1ccc(Br)s1)c1ncc([N+](=O)[O-])s1 | 0.4 µg/mL (≈ 1.25 µM) | 1.6 µg/mL (≈ 5.01 µM) | 1.6 µg/mL (≈ 5.01 µM)
Cc1ccc(C(=O)c2ncc([N+](=O)[O-])s2)c(F)c1C | 1.6 µg/mL (≈ 5.71 µM) | 3.1 µg/mL (≈ 11.1 µM) | 3.1 µg/mL (≈ 11.1 µM)
CCOC(=N)c1ncc([N+](=O)[O-])s1 | 50 µg/mL (≈ 249 µM) | 50 µg/mL (≈ 249 µM) | 50 µg/mL (≈ 249 µM)
